Measured values taken from PubChem BioAssay (NCI).
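Cells were grown in 96-well plates and exposed to each compound for 48 hours at five concentrations; endpoints were interpolated linearly between bracketing concentrations, or set to the highest concentration if not reached. GI50 = concentration required for 50% inhibition of growth. TGI denotes the concentration required for complete inhibition of growth.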

Tests used:
Assay in all cases: NCI-60 cell line screen, 48 h
[1] = tested on: LOX IMVI melanoma
[2] = tested on: SK-MEL-28 melanoma
[3] = tested on: MDA-MB-231 breast
[4] = tested on: HCT-15 colon
[5] = tested on: M14 melanoma
[6] = tested on: HT29 colon
[7] = tested on: OVCAR-4 ovarian
[8] = tested on: SNB-19 CNS
[9] = tested on: NCI-H23 lung
[10] = tested on: NCI-H226 lung

Compound `COc1ccc(Nc2ccnc3cc(Cl)ccc23)cc1CN(CCCl)CCCl` has a GI50 [1] of 0.724 µM, a TGI [1] of 4.39 µM and a GI50 [2] of 3.59 µM. It also gave a TGI [2] of 14.9 µM, a GI50 [3] of 2.45 µM and a TGI [3] of 15.9 µM. For the same compound, the GI50 [4] was 1.85 µM, the TGI [4] was 6.44 µM and the GI50 [5] was 2.14 µM. It also gave a TGI [5] of 7.92 µM, a GI50 [6] of 1.62 µM and a TGI [6] of 6.42 µM. For the same compound, the GI50 [7] was 1.74 µM, the TGI [7] was 5.19 µM and the GI50 [8] was 1.5 µM. For the same compound, the GI50 [9] was 1.04 µM, the TGI [9] was 3.26 µM and the GI50 [10] was 1.63 µM. For the same compound, the TGI [10] was 4.17 µM.
`CN1CCN(C2CC(=O)c3c(Cl)sc(Cl)c32)CC1` (centres undefined) gave a TGI [1] of 3.83 µM, a TGI [2] of 20.2 µM and a TGI [3] of 48 µM. The TGI [4] was over 31.6 µM, the TGI [5] was 20.7 µM and the TGI [6] was 33.7 µM. For the same compound, the TGI [7] was over 42.9 µM, the TGI [8] was over 100 µM and the TGI [9] was 30.3 µM. The TGI [10] was over 65.3 µM.
`CCOC(=O)N1c2c(c3ccccc3n2C(=O)OCC)C(=O)C(OC)N1C(=O)OCC` (centres undefined) showed a TGI [1] of 38.8 µM, a TGI [2] of 53.6 µM and a TGI [3] of 83.6 µM. It also gave a TGI [4] of 79 µM, a TGI [5] of over 100 µM and a TGI [6] of 85.5 µM. The TGI [7] was over 100 µM, the TGI [8] was over 100 µM and the TGI [9] was over 100 µM. It also gave a TGI [10] of over 100 µM.
In the case of `Cc1nc2cccc(F)c2c(=O)n1-c1nnc(C2CC2)s1`, the TGI [1] is reported as over 10 µM, the TGI [2] is reported as over 10 µM and the TGI [3] is reported as over 10 µM. It also gave a TGI [4] of over 10 µM, a TGI [5] of over 10 µM and a TGI [6] of over 10 µM. For the same compound, the TGI [7] was over 10 µM, the TGI [8] was over 10 µM and the TGI [9] was over 10 µM. The TGI [10] was over 10 µM.
`CC(=O)c1nc(C#N)c(N)o1` was tested, and the TGI [1] was over 100 µM, the TGI [2] was over 100 µM and the TGI [3] was over 100 µM. For the same compound, the TGI [4] was over 100 µM, the TGI [5] was over 100 µM and the TGI [6] was over 100 µM. The TGI [7] was over 100 µM, the TGI [8] was over 100 µM and the TGI [9] was over 100 µM. The TGI [10] was over 100 µM.
With `CC(=O)c1c2c(cc3c1CCC3)CCC2` the TGI [1] was over 100 µM, the TGI [2] was over 100 µM and the TGI [3] was over 100 µM. For the same compound, the TGI [4] was over 100 µM, the TGI [5] was over 100 µM and the TGI [6] was over 100 µM. The TGI [7] was over 100 µM, the TGI [8] was over 100 µM and the TGI [9] was over 100 µM. The TGI [10] was over 100 µM.
`O=C1CSC(c2cc3cc(Br)ccc3nc2Cl)N1c1ccc(F)c(Cl)c1` (centres undefined) was tested, and the TGI [1] was over 50 µM, the TGI [2] was over 50 µM and the TGI [3] was over 50 µM. The TGI [4] was over 50 µM, the TGI [5] was over 50 µM and the TGI [6] was over 50 µM. It also gave a TGI [7] of over 50 µM, a TGI [8] of over 50 µM and a TGI [9] of over 50 µM. It also gave a TGI [10] of over 50 µM.
Work on `N#CC(NNC(=O)c1c(Cl)c(Cl)c(Cl)c(Cl)c1-c1nc2ccc(C(=O)c3ccccc3)cc2[nH]1)c1cccc(Oc2ccccc2)c1` (centres undefined) yielded a TGI [1] of over 100 µM, a TGI [2] of 74.1 µM and a TGI [3] of 45.2 µM. For the same compound, the TGI [4] was 53.3 µM, the TGI [5] was 83.9 µM and the TGI [6] was over 100 µM. For the same compound, the TGI [7] was over 100 µM, the TGI [8] was 90 µM and the TGI [9] was 90.9 µM. It also gave a TGI [10] of 53.1 µM.
`CCOC(=O)CCC1(C(=O)O[C@@H]2C[C@H](C)CC[C@H]2C(C)C)CCCCC1=O` (some centres undefined) gave a TGI [1] of over 100 µM, a TGI [2] of over 100 µM and a TGI [3] of over 100 µM. The TGI [4] was over 100 µM, the TGI [5] was over 100 µM and the TGI [6] was over 100 µM. It also gave a TGI [7] of over 100 µM, a TGI [8] of over 100 µM and a TGI [9] of over 100 µM. The TGI [10] was over 100 µM.
Compound `Cc1nc2ccccc2nc1N1CCCC1` has a TGI [1] of over 100 µM, a TGI [2] of over 100 µM and a TGI [3] of over 100 µM. For the same compound, the TGI [4] was over 100 µM, the TGI [5] was over 100 µM and the TGI [6] was over 100 µM. It also gave a TGI [7] of over 100 µM, a TGI [8] of over 100 µM and a TGI [9] of over 100 µM. The TGI [10] was over 100 µM.
Work on `CC(C)(CO)Nc1c(O)c2c(c(O)c1Cl)C(=O)C=CC2=O` yielded a TGI [1] of 1.19 µM, a TGI [2] of 3.32 µM and a TGI [3] of 3.15 µM. For the same compound, the TGI [4] was 2.22 µM, the TGI [5] was 2.26 µM and the TGI [6] was 3.4 µM. The TGI [7] was 2.92 µM, the TGI [8] was 3.5 µM and the TGI [9] was 3.37 µM. For the same compound, the TGI [10] was 4.26 µM.
`N#Cc1nc(-c2ccccn2)c(-c2ccccn2)nc1C#N` was tested, and the TGI [1] was over 27.5 µM, the TGI [2] was 45.6 µM and the TGI [3] was over 53 µM. For the same compound, the TGI [4] was over 42 µM, the TGI [5] was 8.46 µM and the TGI [6] was 14.4 µM. For the same compound, the TGI [7] was 12.3 µM, the TGI [8] was 22 µM and the TGI [9] was 16.7 µM. For the same compound, the TGI [10] was 5.51 µM.
`O=C(CSCC(=O)N/N=C\c1cccc(Br)c1)N/N=C\c1cccc(Br)c1` was tested, and the TGI [1] was 23.5 µM, the TGI [2] was 41.7 µM and the TGI [3] was 26.2 µM. For the same compound, the TGI [4] was 86.5 µM, the TGI [5] was 49.9 µM and the TGI [6] was 66.7 µM. For the same compound, the TGI [7] was 69.9 µM, the TGI [8] was over 100 µM and the TGI [9] was 30.1 µM. The TGI [10] was 36.5 µM.
`Oc1[nH]c2ccccc2c1N=NC(=S)NCc1ccccn1` gave a TGI [1] of 15.3 µM, a TGI [2] of 21.5 µM and a TGI [3] of 20.8 µM. It also gave a TGI [4] of 33.2 µM, a TGI [5] of 4.89 µM and a TGI [6] of over 43 µM. It also gave a TGI [7] of 21 µM, a TGI [8] of 15.2 µM and a TGI [9] of 14.9 µM. It also gave a TGI [10] of 10.5 µM.
`CC(C)(C)C1=CC(O)(c2c3ccccc3c(C3(O)C=C(C(C)(C)C)C(=O)C(C(C)(C)C)=C3)c3ccccc23)C=C(C(C)(C)C)C1=O` gave a TGI [1] of over 100 µM, a TGI [2] of over 100 µM and a TGI [3] of over 100 µM. The TGI [4] was over 100 µM, the TGI [5] was over 100 µM and the TGI [6] was over 100 µM. The TGI [7] was over 100 µM, the TGI [8] was over 100 µM and the TGI [9] was over 100 µM. For the same compound, the TGI [10] was over 100 µM.
`Cc1cnc2cc(Cl)ccc2c1SCC(=O)O` was tested, and the TGI [1] was over 100 µM, the TGI [2] was over 100 µM and the TGI [3] was over 100 µM. The TGI [4] was over 100 µM, the TGI [5] was over 100 µM and the TGI [6] was over 100 µM. It also gave a TGI [7] of over 100 µM, a TGI [8] of over 100 µM and a TGI [9] of over 100 µM. It also gave a TGI [10] of over 100 µM.
For `c1ccc2c(c1)[C@@H]1O[C@@H]1[C@@]13O[C@@]21[C@H]1O[C@H]1c1ccccc13`, the TGI [1] was 27.7 µM, the TGI [2] was 41.2 µM and the TGI [3] was 33.6 µM. For the same compound, the TGI [4] was 48.8 µM, the TGI [5] was 33.6 µM and the TGI [6] was 51.9 µM. It also gave a TGI [7] of 26.8 µM, a TGI [8] of 40.1 µM and a TGI [9] of 40.1 µM. For the same compound, the TGI [10] was 31.3 µM.
